In ChEMBL document CHEMBL4673236, “Synthesis and biological effect of lysosome-targeting fluorescent anion transporters with enhanced anionophoric activity” (Bioorg Med Chem Lett, 2020):
Activity calls are given as the source filed them. The rule behind the calls is not given here.

Columns and labels:
[1] = Aniono-phoric activity in egg-yolk L-aphosphatidylcholine vesicle assessed as increase in efflux of chloride ion by pH discharge experiment
[2] = Drug localization in lysosome of human HeLa cells at 20 uM incubated for 6 hrs by confocal microscopic analysis; format: ADME, subcellular
[3] = Induction of lysosome alkalization in human HeLa cells incubated for 4 hrs by acridine orange staining based confocal microscopic analysis; format: subcellular; conditions: dose 1.5-5 µM
[4] = Induction of lysosome alkalization in human HeLa cells assessed as pixel intensity ratio of red fluorescence to green fluorescence at 5 uM incubated for 4 hrs by acridine orange staining based confocal microscopic analysis relative to control; format: subcellular
[5] = Induction of lysosome alkalization in human HeLa cells assessed as increase in lysosomal pH incubated for 4 hrs by LysoSensor Green […] staining based confocal microscopic analysis; format: subcellular; conditions: dose 1.5-5 µM
HeLa = assay: Induction of lysosomal alkalization in human HeLa cells assessed as reduction in Cathepsin B activity at 5 uM using MR-(RR2) as substrate preincubated for 5 hrs followed by substrate addition and measured after 1 hr by confocal microscopic analysis; format: functional, cell-based; conditions: time 6.0 hrs
[6] = Aniono-phoric activity in egg-yolk L-aphosphatidylcholine vesicle assessed as increase in efflux of chloride ion at 0.5 mol% by electrode technique

In the case of `O=c1cc(CN2CCOCC2)c2ccc(Nc3c(Nc4cc(C(F)(F)F)cc(C(F)(F)F)c4)c(=O)c3=O)cc2o1`, the EC50 [1] is reported as 9.09 mol%, the Drug uptake [2] is reported as “Active” and the Activity [3] is reported as “Dose-dependent effect”. For the same compound, the Ratio [4] was 0.08, the Activity [5] was “Dose-dependent effect” and the Activity (HeLa) was “Active”. The Activity [6] was “Active”.
In the case of `O=c1cc(CN2CCOCC2)c2ccc(Nc3c(Nc4ccc(C(F)(F)F)cc4)c(=O)c3=O)cc2o1`, the EC50 [1] is reported as 0.11 mol%, the Drug uptake [2] is reported as “Active” and the Activity [3] is reported as “Dose-dependent effect”. For the same compound, the Ratio [4] was 0.52, the Activity [5] was “Dose-dependent effect” and the Activity (HeLa) was “Active”. For the same compound, the Activity [6] was “inactive”.
For `Cc1cc(=O)oc2cc(Nc3c(Nc4ccccc4)c(=O)c3=O)ccc12`, the EC50 [1] was “Nd(Insoluble)”, the Drug uptake [2] was “Not Active” and the Activity [6] was “inactive”.
For `Cc1cc(=O)oc2cc(Nc3c(Nc4ccc(N5CCOCC5)cc4)c(=O)c3=O)ccc12`, the EC50 [1] was “Nd(Insoluble)”, the Activity [3] was “Dose-dependent effect” and the Ratio [4] was 0.69. For the same compound, the Activity [5] was “Dose-dependent effect”, the Activity (HeLa) was “Active” and the Activity [6] was “inactive”.
